{"source": "ChEMBL document CHEMBL1134180", "about": "“Synthesis and biological evaluation of DNA targeting flexible side-chain substituted beta-carboline derivatives” (Bioorg Med Chem Lett, 2001)", "key": {"HL-60": {"test_system": "HL-60", "assay": "Inhibitory concentration against Human leukemia cancer cell (HL-60)lines was determined.", "assay_type": "functional, cell-based"}, "BGC-823": {"test_system": "BGC-823", "assay": "Inhibitory concentration against Human Gastric cancer cell (BGC)lines was determined.", "assay_type": "functional, cell-based", "conditions": "BGC-823, Stomach"}, "KB": {"test_system": "KB", "assay": "Inhibitory concentration against KB cancer cell lines was determined.", "assay_type": "functional, cell-based", "conditions": "Homo sapiens"}, "HeLa": {"test_system": "HeLa", "assay": "Inhibitory concentration against Hella cancer cell lines was determined.", "assay_type": "functional, cell-based", "conditions": "Homo sapiens"}, "Homo sapiens": {"species_on_record": "Homo sapiens", "assay": "Inhibitory concentration against Human Gastric cancer cell (BGC) lines was determined.", "assay_type": "functional", "conditions": "Stomach"}}, "data": [{"smiles": "NCCCCCCNC(=O)c1cc2c3ccccc3nc-2c[nH]1", "values": [{"measurement": "IC50", "setting": "HL-60", "value": 510, "unit": "µM"}]}, {"smiles": "CCN(CC)CCNC(=O)c1cc2c3ccccc3nc-2c[nH]1", "values": [{"measurement": "IC50", "setting": "BGC-823", "value": 98, "unit": "µM"}, {"measurement": "IC50", "setting": "HL-60", "value": 130, "unit": "µM"}, {"measurement": "IC50", "setting": "KB", "value": 250, "unit": "µM"}]}, {"smiles": "NCCNC(=O)c1cc2c3ccccc3nc-2c[nH]1", "values": [{"measurement": "IC50", "setting": "HL-60", "value": 81, "unit": "µM"}, {"measurement": "IC50", "setting": "KB", "value": 140, "unit": "µM"}]}, {"smiles": "CN(C)CCCCNC(=O)c1cc2c3ccccc3nc-2c[nH]1", "values": [{"measurement": "IC50", "setting": "HeLa", "value": 140, "unit": "µM"}]}, {"smiles": "NCCCCNC(=O)c1cc2c(cn1)[nH]c1ccccc12", "values": [{"measurement": "IC50", "setting": "BGC-823", "value": 8.6, "unit": "µM"}, {"measurement": "IC50", "setting": "HL-60", "value": 1.9, "unit": "µM"}, {"measurement": "IC50", "setting": "KB", "value": 4.1, "unit": "µM"}]}, {"smiles": "O=c1[nH]cc(F)c(=O)[nH]1", "note": "[FLUOROURACIL]", "values": [{"measurement": "IC50", "setting": "Homo sapiens", "value": 68, "unit": "µM"}, {"measurement": "IC50", "setting": "HL-60", "value": 1, "unit": "µM"}, {"measurement": "IC50", "setting": "KB", "value": 3.5, "unit": "µM"}, {"measurement": "IC50", "setting": "HeLa", "value": 1.6, "unit": "µM"}]}]}
